Columns and labels:
Type in all cases: in vivo
ZEAMX [1] = assay: Pre-emergence herbicidal activity, glasshouse pot test; conditions: rate 1000 g/Ha, evaluated after 13 days, scale 0-5
Procedure, shortened: (§1)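 Pre-emergence spray, one day post-sowing; vehicle acetone/water (50:50) + 0.5% Tween 20, aqueous dilution. Glasshouse 24/16 °C, 14 h light, 65% RH, watering twice daily. Score at 13 d on 0–5 scale, 5 = total damage.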

SETFA [2] = assay: as above; conditions: rate 1000 g/Ha, evaluated after 13 days, scale 0-5
Procedure, shortened: as §1

AMARE [3] = assay: as above; conditions: rate 1000 g/Ha, evaluated after 13 days, scale 0-5
Procedure, shortened: as §1

ABUTH [4] = assay: as above; conditions: rate 1000 g/Ha, evaluated after 13 days, scale 0-5
Procedure, shortened: as §1

ALOMY [5] = assay: as above; conditions: rate 1000 g/Ha, evaluated after 13 days, scale 0-5
Procedure, shortened: as §1

ECHCG [6] = assay: as above; conditions: rate 1000 g/Ha, evaluated after 13 days, scale 0-5
Procedure, shortened: as §1

ZEAMX [7] = assay: Post-emergence herbicidal activity, glasshouse pot test; conditions: Zea mays; application post-emergence; rate 1000 g/Ha; evaluated after 13 days
Procedure, shortened: (§2)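 Visual herbicidal injury (0 = no damage, 5 = plant killed) recorded 13 days post-treatment. Treatment consisted of a single spray onto emerged seedlings at day 8; conditions before and after were 24/16 °C, 14 h light, 65% humidity.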

SETFA [8] = assay: as above; conditions: Setaria faberi; application post-emergence; rate 1000 g/Ha; evaluated after 13 days
Procedure, shortened: as §2

AMARE [9] = assay: as above; conditions: Amaranthus retroflexus; application post-emergence; rate 1000 g/Ha; evaluated after 13 days
Procedure, shortened: as §2

ABUTH [10] = assay: as above; conditions: Abutilon theophrasti; application post-emergence; rate 1000 g/Ha; evaluated after 13 days
Procedure, shortened: as §2

ALOMY [11] = assay: as above; conditions: Alopecurus myosuroides; application post-emergence; rate 1000 g/Ha; evaluated after 13 days
Procedure, shortened: as §2

ECHCG [12] = assay: as above; conditions: Echinochloa crus-galli; application post-emergence; rate 1000 g/Ha; evaluated after 13 days
Procedure, shortened: as §2

Row | SMILES | ZEAMX damage score, application pre-emergence (ZEAMX [1]) | SETFA damage score, application pre-emergence (SETFA [2]) | AMARE damage score, application pre-emergence (AMARE [3]) | ABUTH damage score, application pre-emergence (ABUTH [4]) | ALOMY damage score, application pre-emergence (ALOMY [5]) | ECHCG damage score, application pre-emergence (ECHCG [6]) | Post-emergence herbicidal activity ZEAMX (damage score 0-5) (ZEAMX [7]) | Post-emergence herbicidal activity SETFA (damage score 0-5) (SETFA [8]) | Post-emergence herbicidal activity AMARE (damage score 0-5) (AMARE [9]) | Post-emergence herbicidal activity ABUTH (damage score 0-5) (ABUTH [10]) | Post-emergence herbicidal activity ALOMY (damage score 0-5) (ALOMY [11]) | Post-emergence herbicidal activity ECHCG (damage score 0-5) (ECHCG [12])
1 | CON1C(=O)N(c2cc(C(F)(F)F)ccn2)C(O)[C@@H]1C (mixture of isomers) [Compound A3, (4R,5S)-4-hydroxy-1-methoxy-5-methyl-3-[4-(trifluoromethyl)-2-pyridyl]imidazolidin-2-one and (4S,5S)-4-hydroxy-1-methoxy-5-methyl-3-[4-(trifluoromethyl)-2-pyridyl]imidazolidin-2-one] | 3 | 5 | 5 | 4 | 3 | 5 | 5 | 5 | 5 | 5 | 5 | 5
2 | CON1C(=O)N(c2cc(C(F)(F)F)ccn2)C(O)[C@H]1C (mixture of isomers) [Compound A4, (4R,5R)-4-hydroxy-1-methoxy-5-methyl-3-[4-(trifluoromethyl)-2-pyridyl]imidazolidin-2-one and (4S,5R)-4-hydroxy-1-methoxy-5-methyl-3-[4-(trifluoromethyl)-2-pyridyl]imidazolidin-2-one] | 3 | 5 | 5 | 5 | 4 | 5 | 5 | 5 | 5 | 5 | 5 | 5
3 | C[C@H]1C(O)N(c2cc(C(F)(F)F)ccn2)C(=O)N1C (mixture of isomers) [Compound A37, (4R,5S)-4-hydroxy-1,5-dimethyl-3-[4-(trifluoromethyl)-2-pyridyl]imidazolidin-2-one and (4S,5S)-4-hydroxy-1,5-dimethyl-3-[4-(trifluoromethyl)-2-pyridyl]imidazolidin-2-one] | 3 | 4 | 5 | 5 | 4 | 5 | 4 | 5 | 5 | 5 | 5 | 5
4 | CCOC1C(O)N(c2cc(C(F)(F)F)ccn2)C(=O)N1C (racemic) [Compound A6, 5-ethoxy-4-hydroxy-1-methyl-3-[4-(trifluoromethyl)-2-pyridyl]imidazolidin-2-one] | 2 | 5 | 5 | 5 | 4 | 4 | 2 | 5 | 5 | 5 | 5 | 5
5 | COCC1C(O)N(c2cc(C(F)(F)F)ccn2)C(=O)N1C (racemic) [Compound A54] | 0 | 2 | 5 | 5 | 3 | 2 | 4 | 5 | 5 | 5 | 5 | 5
6 | CC1C(O)N(c2ccc(Cl)cn2)C(=O)N1C (single isomer, unassigned) [Compound A26] | 2 | 4 | 3 | 4 | 2 | 4 | 1 | 1 | 3 | 4 | 1 | 1
7 | Cc1ccnc(N2C(=O)N(C)C(C)C2O)c1 (single isomer, unassigned) [Compound A27] | 3 | 4 | 5 | 4 | 3 | 4 | 3 | 3 | 5 | 5 | 3 | 3
8 | CCC1C(O)N(c2cc(C(F)(F)F)ccn2)C(=O)N1OC (single isomer, unassigned) [Compound A28] | 2 | 5 | 5 | 3 | 4 | 4 | 2 | 5 | 4 | 4 | 5 | 5
9 | COC1C(O)N(c2cc(C(F)(F)F)c(-c3cncnc3)cn2)C(=O)N1C (stereo not shown) [Compound A15] | – | 4 | 5 | – | 3 | 3 | 0 | 4 | 5 | 5 | 4 | 4
10 | CCOC1C(O)N(c2cc(C(F)(F)F)c(I)cn2)C(=O)N1C (stereo not shown) [Compound A16] | – | 4 | 5 | – | 4 | 5 | 2 | 5 | 5 | 5 | 5 | 5
11 | CN1C(=O)N(c2cc(C(F)(F)F)c(I)cn2)C(O)C1O (stereo not shown) [Compound A17] | – | 3 | 5 | – | 3 | 4 | 4 | 5 | 5 | 5 | 5 | 5
12 | COC1C(O)N(c2cc(C(F)(F)F)c(I)cn2)C(=O)N1C (stereo not shown) [Compound A18] | – | 4 | 5 | – | 4 | 5 | 3 | 5 | 5 | 5 | 5 | 5

Source: patent US11608323B2 (SYNGENTA LIMITED, priority 2013, dated 2023)
